Experimental data reported in patent US8901276B2, “Peptide reagents and methods for detection of colon dysplasia” (The Regents of the University of Michigan, priority 2010, dated 2014).

How the values were obtained:
HT29 cells = assay: Flow cytometry of FITC-labeled peptides; type: cell-based, human; details: 10 μM, 60 min, 4° C., FITC channel
Protocol: Preferential binding of FITC-Peptide 2 to target cells was validated using flow cytometry. HT29 and Hs738.St/Int. (˜2×10^5) cells were grown, detached, and blocked as described above. These cells were incubated with the FITC-Peptide 2 or -Control peptide 2 (10 μM) for 60 min at 4° C. with continuous agitation. The cells were then washed (3×) with cold PBST followed by immediate fixing for 10 min. with 4% paraformaldehyde. The cells were washed again (1×) with PBS and resuspended in 1 mL of PBS. Flow cytometry was performed using FACSDiVa (BD® LSRII, BD Biosciences, San Jose, Calif.) and analyzed using Flowjo analysis program (Tree Star Inc., Ashland, Oreg.).
Preferential binding of the candidate peptide labeled with 5-FITC to the target and control cells was also validated using flow cytometry. HT29 and Hs738.St/Int. (˜2×10^5) cells were grown, detached, and blocked, as described above. These cells were incubated with the 5-FITC labeled candidate or control peptide (10 μM) for 60 min at 4° C. with continuous agitation. The cells were then washed 3× with cold PBST followed by immediate fixation for 10 min with 4% paraformaldehyde. The cells were washed again with PBS and resuspended in 1 mL of PBS. Flow cytometry was performed using FACSDiVa (BD® LSRII, BD Biosciences, San Jose, Calif.) and analyzed using Flowjo analysis program (Tree Star Inc. Ashland, Oreg.).

colonic adenomas = assay: In vivo imaging with non-scanning endoscope, FITC-labeled peptides; set-up: species or system CPC; Apc mice; details: Non-scanning Endoscopy Results; FITC label; mean ± SD
From the text: Specific binding of the candidate peptides to primary dysplastic colonic epithelial cells were validated on flow cytometry ex vivo and with small animal endoscopy in vivo using FITC-labeled peptides using a non-scanning white light endoscope.

Hs738.St/Int. cells = assay: Fluorescence microscopy of FITC-labeled peptides; type: cell-based, human; details: 10 μM, 15 min
Protocol: Preferential binding of the FITC-Peptide 2 and FITC-Control peptide 2 to target and non-target cells was also validated via fluorescence microscopy. HT29 and Hs738.St/Int. cells were grown in 22 mm2 cover slips with ˜80% confluence. Blocking of non-specific binding was performed by adding PBS/0.5% BSA for 30 min. The cells were then incubated with 10 μM of FITC-Peptide 2 or FITC-Control peptide 2 either at 4 or 37° C. for 15 min followed by 1 μg/mL Hoechst dye (Sigma Aldrich, St. Louis, Mo.) along with the peptide. The cells were washed with PBS for 3 times and fixed with 4% paraformaldehyde at room temperature for 10 min. After fixation, the cells were washed again with PBS (1×) and mounted with ProLong® Gold reagent (Invitrogen, Carlsbad, Calif.) and the fluorescence images were acquired with Leica Confocal system. (Leica Microsystems GMBH, Wetzlar, 35578 Germany)
Preferential binding of the FITC-labeled candidate and control peptides to the target and non-target cells was further validated via fluorescence microscopy. HT29 and Hs738.St/Int. cells were grown on cover slips to ˜80% confluence. Blocking of non-specific binding was performed by adding PBS/0.5% BSA for 30 min. The cells were then incubated with 10 μM of 5-FITC-labeled candidate or control peptide at either 4 or 37° C. for 15 min followed by staining with 1 μg/mL Hoechst dye (Sigma Aldrich, St. Louis, Mo.) along with the peptide. The cells were washed 3× with PBS and fixed with 4% paraformaldehyde at RT for 10 min. After fixation, the cells were washed again with PBS and mounted with ProLong Gold reagent (Invitrogen, Carlsbad, Calif.) and fluorescence images were collected with confocal microscopy (Leica TCS SP5 Microsystems, Bannockburn, Ill.).

[1] = system: human EMR specimens (normal mucosa, polypoid and non-polypoid dysplasia); assay: Stereomicroscopic validation on EMR specimens; details: for fluorescence intensity on stereomicroscopy: 10 μmol/L, 5 min, mean±SEM
From the text: Binding of the candidate or control peptide to the dysplasia on freshly resected human specimens via endoscopic mucosal resection (EMR) was validated on fluorescence stereomicroscopy. Patients with previously diagnosed polypoid and non-polypoid dysplasia who were referred for EMR were recruited. Institutional review board approval was obtained from the VA Palo Alto Health Care System, and informed consent was acquired. After resection, the specimens were rinsed in PBS 3× to remove debris and mucous. An autofluorescence image was acquired before incubating with the peptide. Then, specimens were incubated with either the FITC-labeled candidate or control peptide at a concentration of 10 μmol/L for 5 min. The unbound peptide was rinsed off with PBS 3×. The mucosal surface of the specimen was oriented face up, and a dab of ink was applied to the upper border as a landmark to register the white light and fluorescence images with histology. A white light image was collected from the specimen with and without an overlying transparent grid that contains squares with dimensions of 1×1 mm^2. Fluorescence images were collected at 500 milliseconds per frame (with the overlying grid removed) using a stereomicroscope (Olympus SZX-16 equipped with Rolera camera; Olympus Corp, Tokyo, Japan) using 477 to 500 nm excitation and 500 to 630 nm emission. A correction to the fluorescence images was performed because the intensity at the center of the image is greater than that in the periphery due to differences in distance. A fluorescence image was collected from a solution of 10 μM FITC in a plate to provide a uniform target for calibration, allowing for quantitative analysis over the entire field of view. After the fluorescence intensities were corrected, lines along the length of the specimen spaced by 2-mm intervals in each image were identified using the grid from the white light image. The mean intensity from each 1×1 mm^2 interval along this length of tissue was calculated using Matlab and compared with histology. Histopathologic interpretation was performed by a gastrointestinal pathologist (HA) who classified the specimens stained with H&E as normal colonic mucosa, dysplasia, or adenocarcinoma. The histopathologic evaluation of the EMR specimens was conducted at VA Palo Alto Health Care System (AM) and classified as either dysplasia or normal mucosa.

[2] = system: human colonic mucosa sections (normal, dysplasia, adenocarcinoma); assay: Peptide immunohistochemistry on frozen sections (Example 11); details: for target-to-background (T/B) ratio KCCFPAQ peptide vs. control peptide: frozen sections; for fluorescence intensity on immunohistochemistry: mean±SEM
Protocol: All specimens were obtained with approval from the University of Michigan Institutional Review Board (IRB). Freshly resected specimens of human colonic mucosa were frozen in OCT and sectioned with 10 μm thickness. The sections were then air dried, washed with PBS, and incubated with the FITC-labeled peptides at a concentration of 10 μM for 15 min at RT. The sections were washed 3× for 1 min in PBS and fixed with 4% paraformaldehyde for 10 min. After fixation, the sections were washed again and mounted with ProLong Gold reagent with DAPI (Invitrogen, Carlsbad, Calif.). The sections were imaged under a confocal microscope (Leica TCS SP5 Microsystems, Bannockburn, Ill.). Adjacent sections were sent for routine histology. The intensity for each image was calculated using Matlab (Mathworks, Natick, Mass.).

With “KCCFPAQ-FITC [FITC-Peptide 2, KCCFPAQ with FITC at the C-terminus on the side chain of lysine residue via GGGSK linker]” the “total HT29 cell population bound” value (HT29 cells) was “About 97%”, the “total HT29 cell population bound” value (HT29 cells; listed as KCCFPAQ peptide) was 97% and the “Average T/B” value (colonic adenomas) was 1.69 ± 0.70. The “binding to Hs738.St/Int. cells on microscopy” value (Hs738.St/Int. cells) was “not the surface of the Hs738.St/Int cells”, the “binding to Hs738.St/Int. cells on microscopy” value (Hs738.St/Int. cells; listed as KCCFPAQ peptide) was “No binding” and the “T/B flat adenoma to adjacent normal mucosa” value [1] was ~2.0 fold. For the same substance, the “T/B polypoid adenoma to adjacent normal mucosa” value [1] was 1.8, the “fluorescence intensity on stereomicroscopy” value ([1]; non-polypoid dysplasia) was 85.1±19.2 AU and the “fluorescence intensity on stereomicroscopy” value ([1]; normal mucosa) was 43.5±10.7 AU. The “fluorescence intensity on stereomicroscopy” value ([1]; polypoid dysplasia) was 78.6±12.8 AU, the “binding to adenocarcinoma compared to normal mucosa” value [2] was 3.1 times and the “binding to adenocarcinoma relative to dysplasia” value [2] was 1.5 fold. The “binding to normal colonic mucosa” value ([2]; 10 μM, 15 min, RT) was “no binding”, the “staining of dysplasia and adenocarcinoma” value ([2]; 10 μM, 15 min, RT) was “consistently stains” and the “target-to-background (T/B) ratio KCCFPAQ peptide vs. control peptide” value ([2]; adenocarcinoma) was 3.6. For the same substance, the “fluorescence intensity on immunohistochemistry” value ([2]; adenocarcinoma) was 31.5±6.0 AU, the “target-to-background (T/B) ratio KCCFPAQ peptide vs. control peptide” value ([2]; dysplasia) was 3.1 and the “fluorescence intensity on immunohistochemistry” value ([2]; dysplasia) was 21.1±3.8 AU. For the same substance, the “target-to-background (T/B) ratio KCCFPAQ peptide vs. control peptide” value ([2]; normal mucosa) was 2.0 and the “fluorescence intensity on immunohistochemistry” value ([2]; normal mucosa) was 10.1±3.6 AU.
